For data set [1], the target named is T1, CYP17 (human testicular microsome) (Homo sapiens, UniProt P05093).
T1 construct: using microsomal fraction from human testis (Celsis Cat #S00110) as the enzyme source; tissue Celsis S00110; host or cells: human testis microsomal fraction
T1 sequence (P05093 1-508): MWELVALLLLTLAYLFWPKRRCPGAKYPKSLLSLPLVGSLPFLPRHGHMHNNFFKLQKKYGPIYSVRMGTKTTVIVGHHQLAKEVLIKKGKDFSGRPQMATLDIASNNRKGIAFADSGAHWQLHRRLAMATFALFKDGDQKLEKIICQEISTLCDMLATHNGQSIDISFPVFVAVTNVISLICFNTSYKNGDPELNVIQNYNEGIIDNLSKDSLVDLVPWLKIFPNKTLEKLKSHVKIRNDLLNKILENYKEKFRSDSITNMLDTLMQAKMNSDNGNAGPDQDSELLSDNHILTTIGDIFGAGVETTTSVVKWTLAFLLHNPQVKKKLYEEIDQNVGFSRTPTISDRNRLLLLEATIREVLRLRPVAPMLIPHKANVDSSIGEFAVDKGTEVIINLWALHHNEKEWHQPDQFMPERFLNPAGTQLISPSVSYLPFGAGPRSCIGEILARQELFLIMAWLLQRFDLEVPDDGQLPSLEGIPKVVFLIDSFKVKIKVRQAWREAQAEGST
In words: CYP17 enzymatic assay (% inhibition at 10 nM), version 1 (Biological Example 5). The class given is biochemical. The following applies: 10 nM compound, DHEA by ELISA, read-out: Biological Example No. 5: CYP17 percent inhibition at 10 nM (version 1). (In general: In an ELISA, binding on a coated surface is turned into a signal by an enzyme label.)

Data set [2] addresses T1, CYP17 (human testicular microsome). Kind of data set: CYP17 enzymatic assay (IC50) (Biological Example 4). The class given is biochemical.
The nature of data set [3]: Human liver microsome stability assay (Biological Example 8b). The following applies: liver microsomes, pH 7.4. A general note: Liver microsomes are vesicles of endoplasmic reticulum, rich in cytochrome P450 enzymes.
Procedure: The reaction was started with addition of excess NADPH (5 mg/mL, 15 μL in 0.1 M potassium phosphate buffer, 1.0 mM EDTA, pH 7.4), the total volume is 45 μL (compound final concentration was 1 μM). […] 50 μL of the supernatant was transferred from each well into a 96-well sample plate containing 50 μL of ultra-pure water (Millipore) for LC-MS/MS analysis.
The target in a further data set is T2, CYP17 (H295R cells) (Homo sapiens, UniProt P05093).
T2 construct: endogenous in cells; host or cells: H295R cells
T2 sequence (P05093 1-508): T1 sequence (P05093 1-508)
Kind of data set: CYP17 cellular assay (IC50), testosterone in H295R cells (Biological Example 7). Type of data set: cell-based. As for the experimental part:
The assays were performed in 96-well plates. Typically H295R cells were seeded at 4.5×10^4 cells/well in 100 μL Growth Medium containing DMEM/F-12 (Gibco/Invitrogen; 11330-032), 2.5% Nu-Serum (BD Bioscience; 355100) and ITS (BD Bioscience; 354352), and cultured at 37° C., 5% CO2 for 24 hr. The next day, media were carefully removed and cells were washed twice with 200 μL 1×HBSS++. Test compounds were then added to the cells at 100, 10, 1, 0.1 nM final concentrations in 125 μL volume per well in serum-free media containing DMEM/F-12 and ITS+ Premix (BD Bioscience; 354352) with 0.1% methanol. Serum-free media with 0.1% methanol without test compound was used as control. Cells were incubated with compounds at 37° C. for additional 24 hours, and the cultured media from each compound treated well was harvested for measurement of testosterone concentration by ELISA according to manufacturer's instruction (Assay Design). Testosterone concentration of each sample was plotted vs. the concentration of the test compounds.

Data set [4] addresses T1, CYP17 (human testicular microsome). Kind of data set: CYP17 enzymatic assay (% inhibition at 1 nM) (Biological Example 12). Type of data set: biochemical. The following applies: compound at 1 nM.
In data set [5] the target is T3, Cyp21 enzyme (Human HEK 293-Cyp21 stable transfected cells) (Homo sapiens, UniProt P08686).
T3 construct: expressed in transfected cells
T3 sequence (P08686 1-495): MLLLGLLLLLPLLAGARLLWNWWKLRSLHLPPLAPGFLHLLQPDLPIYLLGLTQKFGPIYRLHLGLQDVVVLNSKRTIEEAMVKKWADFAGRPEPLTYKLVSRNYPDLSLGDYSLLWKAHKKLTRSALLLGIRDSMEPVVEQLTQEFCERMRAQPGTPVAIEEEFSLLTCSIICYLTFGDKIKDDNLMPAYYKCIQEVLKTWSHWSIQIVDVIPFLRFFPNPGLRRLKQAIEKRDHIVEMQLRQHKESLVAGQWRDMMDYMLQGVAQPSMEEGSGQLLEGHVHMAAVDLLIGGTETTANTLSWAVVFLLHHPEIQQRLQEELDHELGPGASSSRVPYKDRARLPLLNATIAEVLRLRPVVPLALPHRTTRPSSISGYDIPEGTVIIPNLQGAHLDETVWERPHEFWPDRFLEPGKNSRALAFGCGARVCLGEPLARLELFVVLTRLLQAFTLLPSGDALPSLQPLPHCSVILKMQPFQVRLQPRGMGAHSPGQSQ
Kind of data set: CYP21-HEK293 enzymatic assay (IC50) (Biological Example 11). Type of data set: cell-based. The following applies: HEK 293-Cyp21 cells.

[6] abbreviates: read-out: CYP17 enzymatic assay % inhibition at 1 nM (Biological Example No. 12).
[7] abbreviates: human testicular microsome, read-out: CYP17 enzymatic assay IC50 (Biological Example No. 4).
[8] abbreviates: H295R cells, testosterone, read-out: CYP17 cellular assay IC50 (Biological Example No. 7).
Setting [9] is: read-out: CYP21-HEK293 enzymatic assay IC50 (Biological Example No. 11).
Where [10] appears, read: read-out: Biological Example No. 12: CYP17 enzymatic assay % inhibition at 1 nM.
The mark [11] stands for this setting: human testicular microsome, read-out: Biological Example No. 4: CYP17 enzymatic assay IC50.
Setting [12] is: H295R cells, testosterone, read-out: Biological Example No. 7: CYP17 cellular assay IC50.
[13] abbreviates: read-out: Biological Example No. 11: CYP21-HEK293 enzymatic assay IC50.

Where two headings read alike, the source gives them in different places.

As a reminder, the inhibition is how much of the control response was suppressed. By IC50 is commonly meant the concentration that gives 50% inhibition. As a reminder, the half-life is the time in which the quantity being followed falls by half. Higher therefore signals slow loss. `COc1cncc(C2=CC=C3[C@@H]4CC=C5C[C@@H](O)CC[C@]5(C)[C@H]4CC[C@]23C)c1` [Compound 81, (3S,10R,13S)-17-(5-methoxypyridin-3-yl)-10,13-dimethyl-2,3,4,7,8,9,10,11,12,13-decahydro-1H-cyclopenta[a]phenanthren-3-ol]: in data set [1], the inhibition at 0.01 µM is over 80%. In addition, the IC50 in data set [2] (human testicular microsome, DHEA by ELISA, read-out: Biological Example No. 4: CYP17 enzymatic assay IC50) is under 11 nM; on CYP17 (H295R cells) (H295R cells, testosterone by ELISA, 24 hours, read-out: Biological Example No. 7: CYP17 cellular assay IC50), under 15 nM. Besides, in data set [3], the half-life at 1 μM was over 50 min.

Take `C[C@]12CC[C@H]3[C@@H](CCC4=CC(=O)C=C[C@@]43C)C1=CC=C2c1cccnc1` [Compound 290, (10R,13S)-10,13-dimethyl-17-(pyridin-3-yl)-6,7,8,9,10,11,12,13-octahydro-3H-cyclopenta[a]phenanthren-3-one]: in data set [4] (setting [6]), the inhibition at 0.001 µM was over 50%. In addition, the results for the concentration for half-maximal inhibition (IC50) (in data set [2] (setting [7]); at CYP17 (H295R cells) (setting [8]); in data set [5] (setting [9])) were under 11 nM, under 15 nM and 10 to 100 nM, respectively. The compound also yielded a half-life at 1 μM in data set [3] of 1 to 50 min.

Consider `CC1=C2CC[C@@H]3[C@H](CC[C@]4(C)C(c5cccnc5)=CC[C@@H]34)[C@@]2(C)CCC1=O` [Compound 300, (10R,13S)-4,10,13-trimethyl-17-(pyridin-3-yl)-6,7,8,9,10,11,12,13,14,15-decahydro-1H-cyclopenta[a]phenanthren-3(2H)-one], for which the inhibition at 0.001 µM in data set [4] (setting [10]) is over 50%. For the same compound, the values for the IC50 (in data set [2] (setting [11]); at CYP17 (H295R cells) (setting [12]); in data set [5] (setting [13])) were under 11 nM, under 15 nM and over 1000 nM, respectively.

For `CC1C[C@@H]2[C@H](CC[C@]3(C)C(c4cccnc4)=CC[C@@H]23)[C@@]2(C)CCC(=O)C=C12` (stereo partly drawn) [Compound 309, (10R,13S)-6,10,13-trimethyl-17-(pyridin-3-yl)-6,7,8,9,10,11,12,13,14,15-decahydro-1H-cyclopenta[a]phenanthren-3(2H)-one], the inhibition at 0.001 µM in data set [4] (setting [6]) was over 50%. Moreover, the IC50 in data set [2] is under 11 nM; at CYP17 (H295R cells) (setting [8]) it was under 15 nM; in data set [5] (setting [9]), 10 to 100 nM. Moreover, the half-life at 1 μM in data set [3] was 1 to 50 min.

As to `C=C1C[C@@H]2[C@H](CC[C@]3(C)C(c4cccnc4)=CC[C@@H]23)[C@@]2(C)C=CC(=O)C=C12` [Compound 311, (10R,13S)-10,13-dimethyl-6-methylene-17-(pyridin-3-yl)-6,7,8,9,10,11,12,13,14,15-decahydro-3H-cyclopenta[a]phenanthren-3-one], in data set [4] (setting [6]), the inhibition at 0.001 µM is over 50%. The figures for the 50% inhibitory concentration (IC50) (in data set [2] (setting [7]); on CYP17 (H295R cells) (setting [8]); in data set [5] (setting [9])) were under 11 nM, under 15 nM and under 10 nM, respectively. Moreover, the half-life at 1 μM in data set [3] fell in the range of 1 to 50 min.

Regarding `C=C1C[C@@H]2[C@H](CC[C@]3(C)C(c4cccnc4)=CC[C@@H]23)[C@@]2(C)CCC(=O)C=C12` [Compound 312, (10R,13S)-10,13-dimethyl-6-methylene-17-(pyridin-3-yl)-6,7,8,9,10,11,12,13,14,15-decahydro-1H-cyclopenta[a]phenanthren-3(2H)-one], the inhibition at 0.001 µM in data set [4] (setting [6]) is over 50%. Further, the values for the IC50 (in data set [2] (setting [7]); at CYP17 (H295R cells) (setting [8]); in data set [5] (setting [9])) were under 11 nM, under 15 nM and 10 to 100 nM, respectively. This compound had a half-life at 1 μM in data set [3] of 1 to 50 min.

With `C[C@]12CCC(=O)C=C1C1(CC1)C[C@@H]1[C@@H]2CC[C@]2(C)C(c3cccnc3)=CC[C@@H]12` [Compound 313, (10R,13S)-10,13-dimethyl-17-(pyridin-3-yl)-1,7,8,9,10,11,12,13,14,15-decahydrospiro[cyclopenta[a]phenanthrene-6,1′-cyclopropan]-3(2H)-one], in data set [4] (setting [6]), the inhibition at 0.001 µM was over 50%. Moreover, the IC50 was under 11 nM in data set [2] (setting [7]), under 15 nM at CYP17 (H295R cells) (setting [8]) and under 10 nM in data set [5] (setting [9]). This compound also yielded a half-life at 1 μM in data set [3] of 1 to 50 min.

With `CC1C[C@@H]2[C@H](CC[C@]3(C)C(c4cccnc4)=CC[C@@H]23)[C@@]2(C)C=CC(=O)C=C12` (stereo partly drawn) [Compound 318, (10R,13S)-6,10,13-trimethyl-17-(pyridin-3-yl)-6,7,8,9,10,11,12,13,14,15-decahydro-3H-cyclopenta[a]phenanthren-3-one], the inhibition at 0.001 µM in data set [4] (setting [10]) is over 50%. Moreover, the half-life at 1 μM in data set [3] lay within 1 to 50 min. In addition, the IC50 is under 15 nM on CYP17 (H295R cells) (setting [12]) and under 10 nM in data set [5] (setting [13]).

With `C=C1C[C@@H]2[C@H](CC[C@]3(C)C(c4cncc(F)c4)=CC[C@@H]23)[C@@]2(C)C=CC(=O)C=C12` [Compound 320, (10R,13S)-17-(5-fluoropyridin-3-yl)-10,13-dimethyl-6-methylene-6,7,8,9,10,11,12,13,14,15-decahydro-3H-cyclopenta[a]phenanthren-3-one], the 50% inhibitory concentration (IC50) was under 11 nM in data set [2] (setting [11]), under 15 nM on CYP17 (H295R cells) (setting [12]) and over 100 nM in data set [5] (setting [13]). The half-life at 1 μM in data set [3] lay in the range of 1 to 50 min.

Regarding `CC1CC2C3=CC=C(c4cncc(F)c4)[C@@]3(C)CCC2[C@@]2(C)CCC(=O)C=C12` (stereo partly drawn) [Compound 327, (10R,13S)-17-(5-fluoropyridin-3-yl)-6,10,13-trimethyl-6,7,8,9,10,11,12,13-octahydro-1H-cyclopenta[a]phenanthren-3(2H)-one], in data set [4] (setting [10]), the inhibition at 0.001 µM lay in the range of 10 to 50%. In data set [3], the half-life at 1 μM fell in the range of 1 to 50 min. Besides, the IC50 at CYP17 (H295R cells) is under 15 nM; in data set [5] (setting [13]), under 10 nM.

In the case of `CC1CC2C(CC[C@]3(C)C(c4cncc(F)c4)=CCC23)[C@@]2(C)CCC(=O)C=C12` (stereo partly drawn) [Compound 342, (10R,13S)-17-(5-fluoropyridin-3-yl)-6,10,13-trimethyl-6,7,8,9,10,11,12,13,14,15-decahydro-1H-cyclopenta[a]phenanthren-3(2H)-one], the inhibition at 0.001 µM in data set [4] (setting [10]) is over 50%. Moreover, the IC50 in data set [2] (setting [11]) is under 11 nM; at CYP17 (H295R cells) (setting [12]), under 15 nM; in data set [5] (setting [13]), over 100 nM.

For the compound `C[C@]12CCC(=O)C=C1C=CC1C2CC[C@]2(C)C(c3cncc(F)c3)=CCC12` (stereo partly drawn) [Compound 409, (10R,13S)-17-(5-fluoropyridin-3-yl)-10,13-dimethyl-8,9,10,11,12,13,14,15-octahydro-1H-cyclopenta[a]phenanthren-3(2H)-one], in data set [4] (setting [10]), the inhibition at 0.001 µM is over 50%. In addition, the results for the half-maximal inhibitory concentration (IC50) (in data set [2] (setting [11]); at CYP17 (H295R cells) (setting [12])) were under 11 nM and under 15 nM, respectively. The half-life at 1 μM in data set [3] was in the range of 1 to 50 min.

These data come from US20130252930A1 (BIOMARIN PHARMACEUTICAL INC., priority 2010, published 2013).
